Consider 19 molecules from patent US10167300B2, “Metalloenzyme inhibitor compounds as fungicides” (priority 2014, dated 2019).

This test can be described thus: Type B (low volume, EC formulation, track sprayer 200 L/ha) assay, leaf blotch of wheat, SEPTTR field isolate (FI SEPTTR). The class given is in vivo, Mycosphaerella graminicola on wheat plants (variety Yuma). The note with it: Zymoseptoria tritici, 72 h. The protocol:
Example A: Evaluation of Fungicidal Activity: Leaf Blotch of Wheat (Mycosphaerella graminicola; Anamorph: Septoria tritici; Bayer Code SEPTTR)
For Type A assays, technical grades of the experimental fungicides in Table 4 below were dissolved in acetone, and then mixed with nine volumes of water containing 110 ppm Triton X-100. The fungicide solutions were applied onto wheat seedlings using an automated booth sprayer. For Type B assays, emulsifiable concentrate (EC) formulations of technical grades of the experimental fungicides in Table 4 below were prepared at 10% (w/v), and then mixed with 150 volumes of 0.1% Trycol 5941. These solutions were applied onto wheat seedlings using an automated track sprayer at 200 L/ha. All sprayed plants were allowed to air dry prior to further handling.
Wheat plants (variety Yuma) were grown from seed in a greenhouse in 50% mineral soil/50% soil-less Metro mix until the first leaf was fully emerged, with 7-10 seedlings per pot. Prior to or after application of experimental fungicides, plants were inoculated either with spores of a standard laboratory SEPTTR isolate (SI SEPTTR) or with spores from a SEPTTR field isolate collected from Wellsbourne, England in 2012 (FI SEPTTR). After inoculation the plants were kept for 3 days at 20° C. in 100% relative humidity (one day in a dark dew chamber followed by two days in a lighted dew chamber). Plants were then transferred to a 20° C. greenhouse for disease development. When disease symptoms were fully expressed on untreated plants, infection levels on treated plants were assessed on a scale of 0 to 100 percent disease severity. Percent disease control was calculated using the ratio of disease severity on treated plants relative to untreated plants.

[1] abbreviates: field isolate, low volume EC, 100 g/ha, 3 Day Curative, wheat (Yuma), read-out: Disease Control, FI SEPTTR Type B Assay (100 g/ha) 3 DC.
Where [2] appears, read: field isolate, low volume EC, 100 g/ha, 3 Day Protectant, wheat (Yuma), read-out: Disease Control, FI SEPTTR Type B Assay (100 g/ha) 3 DP.
The mark [3] stands for this setting: SEPTTR field isolate, low volume Type B assay, 100 g/ha, 3 Day Curative, wheat leaf blotch, read-out: Disease Control, FI SEPTTR Type B Assay (100 g/ha) 3 DC.
Setting [4] is: SEPTTR field isolate, low volume Type B assay, 100 g/ha, 3 Day Protectant, wheat leaf blotch, read-out: Disease Control, FI SEPTTR Type B Assay (100 g/ha) 3 DP.

Like-named read-outs stand apart in the source and are kept apart here. A value given as a limit tells only on which side of the number the result lay.

As for `CSc1cc(C(C)(C)C#N)ccc1-c1ccc(C(O)(c2cncnc2)C(C)(C)C)nc1` (centres unmarked) [Compound 216, 2-(4-(6-(1-hydroxy-2,2-dimethyl-1-(pyrimidin-5-yl)propyl)pyridin-3-yl)-3-(methylthio)phenyl)-2-methylpropanenitrile], the pest or weed control at 100 g/ha by setting is: under setting [1], 80 to 100%; under setting [2], 80 to 100%.

On to `CC#CC(OC)(c1cncnc1)c1ccc(-c2ccc(OC(F)(F)F)cc2)cn1` (centres unmarked) [Compound 217], for which the pest or weed control at 100 g/ha is under 40% under setting [1] and under 40% under setting [2].

For the molecule `COC(C)(c1cncnc1)c1ccc(-c2ccc(OC(F)(F)F)cc2F)cn1` (centres unmarked) [Compound 206], the pest or weed control at 100 g/ha by setting is: under setting [1], under 40%; under setting [2], 40 to 59%.

With `CCC(O)(c1cncnc1)c1ccc(-c2ccc(OC(F)(F)F)cc2F)cn1` (centres unmarked) [Compound 205], the pest or weed control at 100 g/ha under setting [1] was 40 to 59% and the pest or weed control at 100 g/ha under setting [2] was 80 to 100%.

In the case of `COC(c1cncnc1)(c1ccc(-c2ccc(OC(F)(F)F)cc2)cn1)C(C)C` (centres unmarked) [Compound 194], the pest or weed control at 100 g/ha is under 40% under setting [1] and 80 to 100% under setting [2].

Take `CC(C)C(O)(c1cncnc1)c1ccc(-c2ccc(OC(F)(F)F)cc2F)cn1` (centres unmarked) [Compound 230]: the pest or weed control at 100 g/ha was under 40% under setting [1] and 80 to 100% under setting [2].

In the case of `COc1cc(C(C)(C)C#N)ccc1-c1ccc(C(O)(c2cncnc2)C(C)(C)C)nc1` (centres unmarked) [Compound 263], the pest or weed control at 100 g/ha by setting is: under setting [3], 80 to 100%; under setting [4], 80 to 100%.

Take `COC(c1cncnc1)(c1ccc(-c2ccc(C3(C#N)CC3)cc2)cn1)C(C)(C)C` (centres unmarked) [Compound 192]: the pest or weed control at 100 g/ha was 80 to 100% under setting [1] and 80 to 100% under setting [2].

Turning to `CC(C)(C#N)c1ccc(-c2ccc(C(O)(c3cnccn3)C(C)(C)C)nc2)cc1` (centres unmarked) [Compound 188], the pest or weed control at 100 g/ha is 60 to 79% under setting [1] and 80 to 100% under setting [2].

As for `COc1ncncc1C(O)(c1ccc(-c2ccc(OCC(F)(F)F)cc2)cn1)C(C)(C)C` (centres unmarked) [Compound 203], the pest or weed control at 100 g/ha is, setting by setting: under setting [1], 40 to 59%; under setting [2], 80 to 100%.

On to `COc1ncncc1C(O)(c1ccc(-c2ccc(OC(F)F)cc2)cn1)C(C)(C)C` (centres unmarked) [Compound 273], for which the pest or weed control at 100 g/ha was under 40% under setting [3] and 80 to 100% under setting [4].

As to `CCOC(c1cncnc1)(c1ccc(-c2ccc(OC(F)(F)F)cc2)cn1)C(C)(C)C` (centres unmarked) [Compound 198], the pest or weed control at 100 g/ha was under 40% under setting [1] and 80 to 100% under setting [2].

Take `CC(C)(C#N)c1ccc(-c2ccc(C(O)(c3cncc(F)c3)C(C)(C)C)nc2)cc1` (centres unmarked) [Compound 262]: the pest or weed control at 100 g/ha fell in the range of 80 to 100% under setting [3] and 80 to 100% under setting [4].

For the molecule `CC(C)(C)C(O)(c1cncnc1)c1ccc(-c2ccc(C3(C#N)CC3)cc2F)cn1` (centres unmarked) [Compound 236], the pest or weed control at 100 g/ha fell in the range of 80 to 100% under setting [1] and 80 to 100% under setting [2].

For the molecule `CC(C)(C#N)c1ccc(-c2ccc(C(O)(c3cncnc3)C(C)(C)C)nc2)c(Cl)c1` (centres unmarked) [Compound 265], the pest or weed control at 100 g/ha fell in the range of 80 to 100% under setting [3] and 80 to 100% under setting [4].

For `CCC(OC)(c1cncnc1)c1ccc(-c2ccc(OC(F)(F)F)cc2F)cn1` (centres unmarked) [Compound 269], the pest or weed control at 100 g/ha is 40 to 59% under setting [3] and 80 to 100% under setting [4].

On to `Cc1cc(C(C)(C)C#N)cc(C)c1-c1ccc(C(O)(c2cncnc2)C(C)(C)C)nc1` (centres unmarked) [Compound 252], for which the pest or weed control at 100 g/ha runs as follows: under setting [1], 80 to 100%; under setting [2], 80 to 100%.

On to `CC(C)(C#N)c1ccc(-c2ccc(C(O[Si](C)(C)C)(c3cncnc3)C(C)(C)C)nc2)cc1` (centres unmarked) [Compound 259], for which the pest or weed control at 100 g/ha by setting is: (read-out: Disease Control, FI SEPTTR Type B Assay (100 g/ha) 3 DC) 60 to 79%; (read-out: Disease Control, FI SEPTTR Type B Assay (100 g/ha) 3 DP) 80 to 100%.

In the case of `CC(O)(c1cncnc1)c1ccc(-c2ccc(OC(F)(F)F)cc2F)cn1` (centres unmarked) [Compound 221], the pest or weed control at 100 g/ha reads like this: under setting [1], under 40%; under setting [2], 40 to 59%.
